Data on three compounds can be found in patent US20230270870A1, “DOSAGE OF AN ANTIBODY-DRUG CONJUGATE” (DAIICHI SANKYO COMPANY, LIMITED, priority 2019, published 2023).

Like-named read-outs stand apart in the source and are kept apart here.

Data set [1] can be described thus: Phase 1 clinical study: pharmacokinetics. Type of data set: in vivo. Particulars: human, plasma, intravenous. As to the method:
Preliminary single- and multiple-dose PK were evaluated using noncompartmental analysis in 61 subjects who received DS-1062a (0.27 mg/kg to 10 mg/kg).

A further data set concerns the target T1, topoisomerase I (Homo sapiens, UniProt P11387).
T1 sequence (P11387 1-765): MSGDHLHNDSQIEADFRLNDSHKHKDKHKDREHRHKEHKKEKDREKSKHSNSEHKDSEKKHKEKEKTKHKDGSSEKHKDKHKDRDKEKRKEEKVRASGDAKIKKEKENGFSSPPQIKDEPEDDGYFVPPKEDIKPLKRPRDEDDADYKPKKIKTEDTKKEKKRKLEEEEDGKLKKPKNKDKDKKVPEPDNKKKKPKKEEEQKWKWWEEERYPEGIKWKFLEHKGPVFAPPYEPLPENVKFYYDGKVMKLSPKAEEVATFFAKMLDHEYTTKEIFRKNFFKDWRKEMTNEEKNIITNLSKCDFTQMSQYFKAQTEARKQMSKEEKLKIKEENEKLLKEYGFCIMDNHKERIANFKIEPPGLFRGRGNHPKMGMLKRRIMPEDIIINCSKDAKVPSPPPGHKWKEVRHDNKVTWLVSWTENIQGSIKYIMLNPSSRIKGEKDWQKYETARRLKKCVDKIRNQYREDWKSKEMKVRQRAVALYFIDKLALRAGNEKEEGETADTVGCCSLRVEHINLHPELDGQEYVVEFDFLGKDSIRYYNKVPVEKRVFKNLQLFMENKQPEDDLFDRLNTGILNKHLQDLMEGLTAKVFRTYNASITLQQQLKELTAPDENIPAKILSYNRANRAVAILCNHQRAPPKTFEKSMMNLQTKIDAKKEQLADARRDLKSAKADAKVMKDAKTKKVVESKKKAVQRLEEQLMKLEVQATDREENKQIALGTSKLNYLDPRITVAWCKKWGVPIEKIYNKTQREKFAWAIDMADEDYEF
The settings on record: cited from earlier work.

In data set [2] the test system is NSCLC. The settings on record: NSCLC progressed during or after platinum-based doublet chemotherapy, N=290; cited from earlier work.
Data set [3] concerns NSCLC. The settings on record: phase 2, subjects who received standard of care; cited from earlier work.

Take `CC[C@@]1(O)C(=O)OCc2c1cc1n(c2=O)Cc2c-1nc1cc(F)c(C)c3c1c2[C@@H](NC(=O)CO)CC3` [Compound 1, HO—CH2—C(═O)—(NH—DX)]: the “exposure of released drug compared with DS-1062a” value in data set [1] is listed as “lower than that of DS-1062a”. Further, on topoisomerase I, the “topoisomerase I inhibitory effect” value was “topoisomerase I inhibitory effect”.
Consider `CC(=O)O[C@@]12CO[C@@H]1C[C@H](O)[C@@]1(C)C(=O)[C@H](O)C3=C(C)[C@@H](OC(=O)[C@H](O)[C@@H](NC(=O)OC(C)(C)C)c4ccccc4)C[C@@](O)([C@@H](OC(=O)c4ccccc4)[C@H]21)C3(C)C` [Docetaxel monotherapy, Docetaxel], for which, in the data set on NSCLC [2], the DCR is 54.0% (158/290) (not provided) and the ORR is 12.0% (36/290) (9.0% to 17.0%).
With Sactizumab govitecan, in the data set with NSCLC [3], the ORR was 19%.
